Results reported in the NIST ThermoML archive (doi:10.1016/j.jct.2013.01.009).
Values joined by “and” are separate entries in the source; they are usually repeats but may differ in a detail not shown here. Identical values can stand only once.

Columns and labels:
[1] = molar heat capacity at constant pressure; conditions: 101.33 kPa
[2] = for vapor or sublimation pressure: Closed cell (Static) method
[3] = molar enthalpy of vaporization or sublimation; conditions: 298.15 K, Static calorimetry
[4] = Molar enthalpy of transition or fusion; conditions: Crystal; DSC

CC1=CC[C@H]2C[C@@H]1C2(C)C [(S)-2-pinene]
[1], Liquid, Large sample (1 g) DSC
Conditions	molar heat capacity at constant pressure [J/K/mol]
273.4 K	239.62
278.5 K	242.37
283.6 K	244.61
288.7 K	247.11
293.8 K	249.27
298.9 K	253.09
304 K	255.34
309.1 K	257.83
314.2 K	260.41
319.4 K	262.57
324.5 K	266.15
329.6 K	268.97
334.7 K	272.3
339.8 K	274.88
344.9 K	278.7
350 K	282.11
355.1 K	284.44

[2], Liquid
Conditions	vapor or sublimation pressure
238.19 K	0.0053 kPa
243.2 K	0.00874 kPa and 0.00875 kPa
253.19 K	0.02209 kPa and 0.0221 kPa
258.2 K	0.03413 kPa and 0.03415 kPa and 0.03412 kPa
263.19 K	0.05172 kPa
268.19 K	0.07688 kPa and 0.07689 kPa and 0.07691 kPa
273.65 K	0.1164 kPa
273.66 K	0.1164 kPa
278.16 K	0.1615 kPa and 0.1614 kPa
283.15 K	0.2288 kPa
288.15 K	0.3195 kPa and 0.3196 kPa
293.15 K	0.4403 kPa and 0.4404 kPa
298.15 K	0.599 kPa and 0.5991 kPa
303.15 K	0.8053 kPa
303.16 K	0.8056 kPa and 0.8057 kPa
308.17 K	1.071 kPa
308.18 K	1.071 kPa

C=C1CC[C@H]2C[C@@H]1C2(C)C [(1S,5S)-6,6-dimethyl-2-methylenebicyclo[3.1.1]heptane]
[1], Liquid, Large sample (1 g) DSC
Conditions	molar heat capacity at constant pressure [J/K/mol]
273.4 K	230.06
278.5 K	232.64
283.6 K	235.22
288.7 K	237.96
293.8 K	240.62
298.9 K	243.36
304 K	245.94
309.1 K	248.19
314.2 K	251.01
319.4 K	254.17
324.5 K	256.75
329.6 K	260.08
334.7 K	262.9
339.8 K	266.4
344.9 K	269.47
350 K	272.05
355.1 K	275.21

[2], Liquid
Conditions	vapor or sublimation pressure
248.13 K	0.00844 kPa and 0.00845 kPa
253.14 K	0.01345 kPa and 0.01346 kPa
258.15 K	0.021 kPa and 0.02101 kPa
263.15 K	0.03214 kPa and 0.03213 kPa
268.15 K	0.04828 kPa and 0.04829 kPa
273.65 K	0.07411 kPa and 0.07418 kPa
278.15 K	0.1037 kPa and 0.1038 kPa
283.15 K	0.1485 kPa
288.15 K	0.2093 kPa and 0.2094 kPa and 0.2095 kPa
293.15 K	0.291 kPa and 0.2911 kPa
298.15 K	0.4 kPa
303.15 K	0.5419 kPa and 0.542 kPa
308.15 K	0.7254 kPa and 0.7255 kPa and 0.7256 kPa

CC1=CC(=O)[C@H]2C[C@@H]1C2(C)C [(-)-verbenone]
[1], Liquid
Conditions	molar heat capacity at constant pressure [J/K/mol]
273.4 K, Large sample (1 g) DSC	258.83
278.5 K, Large sample (1 g) DSC	260.99
283.6 K, Large sample (1 g) DSC	262.32
288.7 K, Large sample (1 g) DSC	264.07
293.8 K, Large sample (1 g) DSC	266.73
298.15 K, Drop calorimetry	270.55
298.9 K, Large sample (1 g) DSC	269.39
304 K, Large sample (1 g) DSC	270.47
309.1 K, Large sample (1 g) DSC	273.05
314.2 K, Large sample (1 g) DSC	275.62
319.4 K, Large sample (1 g) DSC	276.87
324.5 K, Large sample (1 g) DSC	279.45
329.6 K, Large sample (1 g) DSC	281.69
334.7 K, Large sample (1 g) DSC	284.69
339.8 K, Large sample (1 g) DSC	286.93
344.9 K, Large sample (1 g) DSC	289.68
350 K, Large sample (1 g) DSC	292
355.1 K, Large sample (1 g) DSC	294.42

[2], Liquid
Conditions	vapor or sublimation pressure
273.65 K	0.00181 kPa and 0.00183 kPa
273.66 K	0.00181 kPa
278.15 K	0.00278 kPa
278.16 K	0.00276 kPa and 0.00277 kPa
283.15 K	0.00436 kPa and 0.00437 kPa
288.15 K	0.00676 kPa and 0.00678 kPa and 0.00675 kPa
293.15 K	0.01031 kPa
293.16 K	0.01032 kPa and 0.01035 kPa
298.15 K	0.01545 kPa and 0.01546 kPa and 0.01547 kPa
303.15 K	0.02273 kPa and 0.02278 kPa and 0.02281 kPa
308.16 K	0.03304 kPa and 0.03307 kPa and 0.03309 kPa

Conditions	molar enthalpy [kcal/mol]
[3], Liquid	14.1

CC1=C[C@H](O)[C@H]2C[C@@H]1C2(C)C [(-)-cis-verbenol]
Conditions	Molar enthalpy of transition or fusion [kcal/mol]
[4]	4.18

[1]
Conditions	molar heat capacity at constant pressure [J/K/mol]
273.4 K, Crystal, Large sample (1 g) DSC	217.51
278.5 K, Crystal, Large sample (1 g) DSC	222.58
283.6 K, Crystal, Large sample (1 g) DSC	228.98
288.7 K, Crystal, Large sample (1 g) DSC	235.38
293.8 K, Crystal, Large sample (1 g) DSC	242.28
298.15 K, Crystal, Drop calorimetry	233.55
298.9 K, Crystal, Large sample (1 g) DSC	250.18
304 K, Crystal, Large sample (1 g) DSC	259
309.1 K, Crystal, Large sample (1 g) DSC	269.14
344.9 K, Liquid, Large sample (1 g) DSC	372.99
350 K, Liquid, Large sample (1 g) DSC	377.14
355.1 K, Liquid, Large sample (1 g) DSC	381.47

[2]
Conditions	Normal melting temperature, Crystal [°C]	vapor or sublimation pressure, 273.15 K	vapor or sublimation pressure, 278.15 K	vapor or sublimation pressure, 283.15 K [kPa]	vapor or sublimation pressure, 288.15 K	vapor or sublimation pressure, 293.15 K	vapor or sublimation pressure, 298.15 K	vapor or sublimation pressure, 303.15 K [kPa]	vapor or sublimation pressure, 308.15 K	vapor or sublimation pressure, 313.15 K
Crystal	–	0.00025 kPa and 0.00026 kPa	0.00049 kPa and 0.0005 kPa	0.00092	0.00169 kPa and 0.00168 kPa	0.003 kPa and 0.00301 kPa	0.00523 kPa and 0.00528 kPa and 0.00529 kPa	0.00906	0.01518 kPa and 0.01523 kPa and 0.01524 kPa	0.02515 kPa and 0.02516 kPa and 0.02517 kPa
DTA	70.5	–	–	–	–	–	–	–	–	–

Conditions	molar enthalpy [kcal/mol]
[3], Crystal	19.1
